# According to patent US4232148A, “6-Deoxyneamines” (The Upjohn Company, priority 1979, dated 1980):
# Where two headings read alike, the source gives them in different places.
# Tests used:
# Assay type in all cases: cell-based
# B. cereus UC 3145 = assay: standard disc plate assay, zone of inhibition; conditions: 12.5 mm paper discs
# Description: (§1) The compounds of formulas (V, VII, IX, XI, XIV, XVI, and XIX) are active as antibacterials and can be used in various environments to erradicate or control susceptible microorganisms. Tables I and II set forth the in vitro antibacterial test results for representative compounds of the present invention. The results were obtained with a standard disc plate assay using 12.5 mm paper discs.
# B. subtilis UC 564 = assay: standard disc plate assay, zone of inhibition; conditions: 12.5 mm paper discs
# Description: as §1
# E. coli UC 51 = assay: standard disc plate assay, zone of inhibition; conditions: 12.5 mm paper discs
# Description: as §1
# K. pneumoniae UC 57 = assay: standard disc plate assay, zone of inhibition; conditions: 12.5 mm paper discs
# Description: as §1
# P. vulgaris UC 93 [1] = assay: standard disc plate assay, zone of inhibition; conditions: 12.5 mm paper discs
# Description: as §1
# Ps. aeruginosa UC 95 [2] = assay: standard disc plate assay, zone of inhibition; conditions: 12.5 mm paper discs
# Description: as §1
# S. aureus UC 80 = assay: standard disc plate assay, zone of inhibition; conditions: 12.5 mm paper discs
# Description: as §1
# S. gallinarum UC 265 = assay: standard disc plate assay, zone of inhibition; conditions: Salmonella enterica, read-out: Zones of Inhibition
# Description: as §1
# S. lutea UC 130 = assay: standard disc plate assay, zone of inhibition; conditions: Micrococcus luteus, UC130, read-out: Zones of Inhibition
# Description: as §1
# S. schottmeulleri UC 126 = assay: standard disc plate assay, zone of inhibition; conditions: 12.5 mm paper discs
# Description: as §1
# D. pneumoniae UC 41 = assay: standard microplate test in BHI Agar, MIC; conditions: Streptococcus pneumoniae, UC41, 37°, 20 hours, read-out: Minimal Inhibitory Concentration
# Experimental: (§2) The compounds VII, XI, XVβ, XVα and XVI were tested in a standard microplate test in BHI (Brain Heart Infusion) Agar at a concentration of 1 mg./ml. and dilutions thereof at 37° incubation temperature. The end points are read at 20 hours. BHI Agar is supplied by Difco Laboratories, Detroit, Mich., U.S.A. and has the following compositions:
# (§3) Calf brains, infusion from: 200 gm.
# (§4) Beef heart, infusion from: 250 gm.
# (§5) Bacto Proteose-peptone, Difco: 10 gm.
# (§6) Bacto-Dextrose, Difco: 1 gm.
# (§7) Disodium phosphate: 2.5 gm.
# E. coli UC 311 = assay: standard microplate test in BHI Agar, MIC; conditions: Escherichia coli, UC311, 20 h, read-out: Minimal Inhibitory Concentration
# Experimental: as §2, §3, §4, §5, §6, §7
# E. coli UC 45 = assay: standard microplate test in BHI Agar, MIC; conditions: Escherichia coli, UC45, 37°, 20 hours, read-out: Minimum Inhibitory Concentration
# Experimental: as §2, §3, §4, §5, §6, §7
# K. pneumoniae UC 58 = assay: standard microplate test in BHI Agar, MIC; conditions: Klebsiella pneumoniae, UC58, 20 h
# Experimental: as §2, §3, §4, §5, §6, §7
# P. mirabilis UC 6671 = assay: standard microplate test in BHI Agar, MIC; conditions: Proteus mirabilis, UC6671, 37°, 20 hours
# Experimental: as §2, §3, §4, §5, §6, §7
# P. morganii UC 3186 = assay: standard microplate test in BHI Agar, MIC; conditions: Morganella morganii, UC3186, 20 h
# Experimental: as §2, §3, §4, §5, §6, §7
# P. rettgeri UC 339 = assay: standard microplate test in BHI Agar, MIC; conditions: Providencia rettgeri, UC339, 20 h
# Experimental: as §2, §3, §4, §5, §6, §7
# P. vulgaris UC 93 [3] = assay: standard microplate test in BHI Agar, MIC; conditions: Proteus vulgaris, UC93, 37°, 20 hours
# Experimental: as §2, §3, §4, §5, §6, §7
# Ps. aeruginosa UC 95 [4] = assay: standard microplate test in BHI Agar, MIC; conditions: Pseudomonas aeruginosa, UC95, 20 h
# Experimental: as §2, §3, §4, §5, §6, §7
# S. aureus UC 76 = assay: standard microplate test in BHI Agar, MIC; conditions: Staphylococcus aureus, UC76, 20 h
# Experimental: as §2, §3, §4, §5, §6, §7
# S. faecalis UC 694 = assay: standard microplate test in BHI Agar, MIC; conditions: Enterococcus faecalis, UC694, 20 h
# Experimental: as §2, §3, §4, §5, §6, §7
# S. flexneri UC 143 = assay: standard microplate test in BHI Agar, MIC; conditions: Shigella flexneri, UC143, 37°, 20 hours
# Experimental: as §2, §3, §4, §5, §6, §7
# S. marcescens UC 131 = assay: standard microplate test in BHI Agar, MIC; conditions: Serratia marcescens, UC131, 37°, 20 hours
# Experimental: as §2, §3, §4, §5, §6, §7
# S. pneumoniae I UC 41 = assay: standard microplate test in BHI Agar, MIC; conditions: Streptococcus pneumoniae, UC41, 37°, 20 hours, read-out: Minimum Inhibitory Concentration
# Experimental: as §2, §3, §4, §5, §6, §7
# S. pyogenes UC 152 = assay: standard microplate test in BHI Agar, MIC; conditions: Streptococcus pyogenes, UC152, 20 h
# Experimental: as §2, §3, §4, §5, §6, §7
# S. typhi UC 215 = assay: standard microplate test in BHI Agar, MIC; conditions: Salmonella enterica, BHI Agar, 37°, 20 hours
# Experimental: as §2, §3, §4, §5, §6, §7
# [5] = read-out: Minimal Inhibitory Concentration
# [6] = read-out: Minimum Inhibitory Concentration
smiles,measurement,setting,value
NC[C@H]1O[C@H](O[C@H]2[C@H](O)[C@@H](O)[C@H](N)C[C@@H]2N)[C@H](N)[C@@H](O)[C@@H]1O [Neamine],Zones of Inhibition,B. cereus UC 3145; 1 mg/ml,23 mm
same,zone of inhibition at 100 µg/mL,"B. cereus UC 3145; Bacillus cereus, UC3145, read-out: Zones of Inhibition, 0.1 mg/ml",15 mm
same,zone of inhibition at 1000 µg/mL,"B. cereus UC 3145; Bacillus cereus, UC3145, read-out: Zones of Inhibition, 1 mg/ml",24 mm
same,Zones of Inhibition,B. subtilis UC 564; 0.1 mg/ml,28 mm
same,Zones of Inhibition,B. subtilis UC 564; 1 mg/ml,37 mm
same,zone of inhibition at 100 µg/mL,"B. subtilis UC 564; Bacillus subtilis, UC564, read-out: Zones of Inhibition, 0.1 mg/ml",30 mm
same,zone of inhibition at 1000 µg/mL,"B. subtilis UC 564; Bacillus subtilis, UC564, read-out: Zones of Inhibition, 1 mg/ml",39 mm
same,Zones of Inhibition,E. coli UC 51; 0.1 mg/ml,18 mm
same,Zones of Inhibition,E. coli UC 51; 1 mg/ml,25 mm
same,zone of inhibition at 100 µg/mL,"E. coli UC 51; Escherichia coli, UC51, read-out: Zones of Inhibition, 0.1 mg/ml",19 mm
same,zone of inhibition at 1000 µg/mL,"E. coli UC 51; Escherichia coli, UC51, read-out: Zones of Inhibition, 1 mg/ml",27 mm
same,Zones of Inhibition,K. pneumoniae UC 57; 0.1 mg/ml,26 mm
same,Zones of Inhibition,K. pneumoniae UC 57; 1 mg/ml,32 mm
same,zone of inhibition at 100 µg/mL,"K. pneumoniae UC 57; Klebsiella pneumoniae, UC57, read-out: Zones of Inhibition, 0.1 mg/ml",27 mm
same,zone of inhibition at 1000 µg/mL,"K. pneumoniae UC 57; Klebsiella pneumoniae, UC57, read-out: Zones of Inhibition, 1 mg/ml",34 mm
same,Zones of Inhibition,P. vulgaris UC 93 [1]; 0.1 mg/ml,15 mm
same,Zones of Inhibition,P. vulgaris UC 93 [1]; 1 mg/ml,28 mm
same,zone of inhibition at 100 µg/mL,"P. vulgaris UC 93 [1]; Proteus vulgaris, UC93, read-out: Zones of Inhibition, 0.1 mg/ml",18 mm
same,zone of inhibition at 1000 µg/mL,"P. vulgaris UC 93 [1]; Proteus vulgaris, UC93, read-out: Zones of Inhibition, 1 mg/ml",27 mm
same,Zones of Inhibition,Ps. aeruginosa UC 95 [2]; 1 mg/ml,18 mm
same,zone of inhibition at 1000 µg/mL,"Ps. aeruginosa UC 95 [2]; Pseudomonas aeruginosa, UC95, read-out: Zones of Inhibition, 1 mg/ml",17 mm
same,Zones of Inhibition,S. aureus UC 80; 0.1 mg/ml,18 mm
same,Zones of Inhibition,S. aureus UC 80; 1 mg/ml,26 mm
same,zone of inhibition at 100 µg/mL,"S. aureus UC 80; Staphylococcus aureus, UC80, read-out: Zones of Inhibition, 0.1 mg/ml",20 mm
same,zone of inhibition at 1000 µg/mL,"S. aureus UC 80; Staphylococcus aureus, UC80, read-out: Zones of Inhibition, 1 mg/ml",29 mm
same,zone of inhibition at 100 µg/mL,S. gallinarum UC 265,19 mm
same,zone of inhibition at 1000 µg/mL,S. gallinarum UC 265,29 mm
same,zone of inhibition at 1000 µg/mL,S. lutea UC 130,17 mm
same,Zones of Inhibition,S. schottmeulleri UC 126; 0.1 mg/ml,15 mm
same,zone of inhibition at 100 µg/mL,"S. schottmeulleri UC 126; 0.1 mg/ml, read-out: Zones of Inhibition",16 mm
same,Zones of Inhibition,S. schottmeulleri UC 126; 1 mg/ml,23 mm
same,zone of inhibition at 1000 µg/mL,"S. schottmeulleri UC 126; 1 mg/ml, read-out: Zones of Inhibition",24 mm
same,MIC,D. pneumoniae UC 41,62.5 µg/mL
same,MIC,E. coli UC 311,125 µg/mL
same,MIC,E. coli UC 45,62.5 µg/mL
same,MIC,K. pneumoniae UC 58; [5],7.8 µg/mL
same,MIC,K. pneumoniae UC 58; [6],15.6 µg/mL
same,MIC,P. mirabilis UC 6671; [5],250 µg/mL
same,MIC,P. mirabilis UC 6671; [6],62.5 µg/mL
same,MIC,P. morganii UC 3186; [5],31.2 µg/mL
same,MIC,P. morganii UC 3186; [6],62.5 µg/mL
same,MIC,P. rettgeri UC 339; [5],> 500 µg/mL
same,MIC,P. rettgeri UC 339; [6],250 µg/mL
same,MIC,P. vulgaris UC 93 [3]; [5],62.5 µg/mL
same,MIC,P. vulgaris UC 93 [3]; [6],62.5 µg/mL
same,MIC,Ps. aeruginosa UC 95 [4]; [5],> 500 µg/mL
same,MIC,Ps. aeruginosa UC 95 [4]; [6],> 500 µg/mL
same,MIC,S. aureus UC 76; [5],7.8 µg/mL
same,MIC,S. aureus UC 76; [6],3.9 µg/mL
same,MIC,S. faecalis UC 694; [5],> 500 µg/mL
same,MIC,S. faecalis UC 694; [6],> 500 µg/mL
same,MIC,S. flexneri UC 143; [5],125 µg/mL
same,MIC,S. flexneri UC 143; [6],62.5 µg/mL
same,MIC,S. marcescens UC 131; [5],250 µg/mL
same,MIC,S. marcescens UC 131; [6],250 µg/mL
same,MIC,S. pneumoniae I UC 41,62.5 µg/mL
same,MIC,S. pyogenes UC 152; [5],7.8 µg/mL
same,MIC,S. pyogenes UC 152; [6],7.8 µg/mL
same,MIC,S. typhi UC 215; [5],31.2 µg/mL
same,MIC,S. typhi UC 215; [6],15.6 µg/mL
